Holding throughout (format): functional, cell-based
One experiment has as its system HCT-8. In words: Antiproliferative activity against human HCT-8 cells assessed as inhibition of cell growth.
The subject of experiment [1] is A549. Description: Antiproliferative activity against human A549 cells assessed as inhibition of cell growth.
Experiment [2] in a line: Antiproliferative activity against human MDA-MB cells assessed as inhibition of cell growth.
Experiment [3] deals with HT-29. In words: Antiproliferative activity against human HT-29 cells assessed as inhibition of cell growth incubated for 48 hrs by SRB assay.
The test system of the next experiment is CAKI-2. Description: Antiproliferative activity against human CAKI-2 cells assessed as inhibition of cell growth incubated for 24 hrs by SRB assay. Particulars: CAKI-2, 24 h.
Experiment [4] concerns MCF7. Description: Antiproliferative activity against human MCF7 cells assessed as inhibition of cell growth incubated for 24 hrs by SRB assay. Particulars: MCF7, 24 h.
A further experiment has as its system LS174T. In words: Antiproliferative activity against human LS174T cells assessed as inhibition of cell growth incubated for 24 hrs by SRB assay.
A short description of experiment [5]: Antiproliferative activity against human StMl1 1a cells assessed as inhibition of cell growth incubated for 24 hrs by SRB assay.
In another experiment the test system is LoVo. In words: Antiproliferative activity against human LoVo cells assessed as inhibition of cell growth by MTT assay.
For experiment [6], the system named is MCF7. In words: Antiproliferative activity against human MCF7 cells assessed as inhibition of cell growth by MTT assay.
Experiment [7] concerns HepG2. Description: Antiproliferative activity against human HepG2 cells assessed as inhibition of cell growth by MTT assay.
For the next experiment, the system named is K562. In words: Antiproliferative activity against human K562 cells assessed as inhibition of cell growth incubated for 48 hrs by MTT assay. Particulars: K562, 48 h.
Experiment [8] deals with A549. In words: Antiproliferative activity against human A549 cells assessed as inhibition of cell growth incubated for 48 hrs by MTT assay. Particulars: A549, 48 h.
Another experiment deals with BT-549. Description: Antiproliferative activity against human BT-549 cells assessed as inhibition of cell growth incubated for 48 hrs by MTT assay. Particulars: BT-549, 48 h.
Another experiment concerns PC-3. Description: Antiproliferative activity against human PC-3 cells assessed as inhibition of cell growth incubated for 48 hrs by MTT assay. To be noted: PC-3, 48 h.
Experiment [9] in a line: Antiproliferative activity against human AV3 cells assessed as inhibition of cell growth incubated for 72 hrs by MTT assay. To be noted: AV3, 72 h.
The test system of another experiment is MDA-MB-231. In words: Antiproliferative activity against human MDA-MB-231 cells assessed as inhibition of cell growth incubated for 72 hrs by MTT assay. Particulars: MDA-MB-231, 72 h.
A further experiment relates to Huh-7. In words: Antiproliferative activity against human Huh-7 cells assessed as inhibition of cell growth incubated for 72 hrs by MTT assay. To be noted: Huh-7, 72 h.
Experiment [10] concerns HT-29. Description: Antiproliferative activity against human HT-29 cells assessed as inhibition of cell growth.
The subject of a further experiment is NCI-H460. In words: Antiproliferative activity against human NCI-H460 cells assessed as inhibition of cell growth by MTT assay.
For experiment [11], the system named is HepG2. Description: Antiproliferative activity against human HepG2 cells assessed as inhibition of cell growth incubated for 24 hrs by colorimetric method. To be noted: HepG2, 24 h.
Another experiment relates to HCT-116. In words: Antiproliferative activity against human HCT-116 cells assessed as inhibition of cell growth incubated for 24 hrs by MTT assay. Particulars: HCT-116, 24 h.

The structures appear in SMILES notation. Values after ≈ are worked out from the molar mass of the structure shown.

`CN1C[C@H](c2c[nH]c3c(Br)c(Br)cc(O)c23)NC[C@H]1c1c[nH]c2cc(Br)ccc12`: the results for the IC50 (in the experiment with HCT-8; in the experiment with A549 [1]; in [2]) were 1 µg/mL (≈ 1.71 µM), 1 µg/mL and 1 µg/mL (≈ 1.71 µM), respectively.

In the case of `C/C=C1/CN2CC[C@@]34C[C@H]5[C@@H]6C[C@H]7c8c(c9ccccc9n8C)C[C@@H]([C@@H]6CO[C@@]5(C)O[C@@]35[C@@H]2C[C@@H]1[C@@H](C(=O)OC)N5c1ccccc14)N7C`, the IC50 in the experiment with HT-29 [3] (HT-29, 48 h) came out at 8 µM; in the experiment with CAKI-2, 2 µM; in the experiment on MCF7 [4], 2 µM; in the experiment with LS174T, 2 µM; in [5], 2 µM.

As for `CC[C@@H]1C[C@H]2C[C@](C(=O)OC)(c3cc4c(cc3OC)N(C)[C@H]3[C@@](O)(C(=O)OC)[C@H](OC(C)=O)[C@]5(CC)C=CCN6CC[C@]43[C@@H]65)c3[nH]c4ccccc4c3CC[N+]([O-])(C1)C2`, the 50% inhibitory concentration (IC50) is 65.2 µM with LoVo, 51.3 µM in the experiment on MCF7 [6] and 38.2 µM in the experiment on HepG2 [7].

In the case of `CC[C@]12C=C[C@H](C3=CC4CC(C(=O)OC)=C5Nc6cc(OC)ccc6[C@@]56CCN(C3)[C@@H]46)N3CC[C@]4(C(=C(C(=O)OC)C1)Nc1cc(OC)ccc14)[C@@H]32` (some centres undefined), the concentration for half-maximal inhibition (IC50) with K562 stood at 10.7 µM; with A549 [8] it was 11.4 µM; with BT-549 it was 0.89 µM; in the experiment on PC-3, 3.44 µM.

Regarding `C/C=C1/CCN2CC[C@@]34c5cc6c(cc5N(C)[C@]35OC[C@]4(C(=O)OC)[C@@H]1[C@H]25)O[C@@]12[C@@H]3C[C@H]4/C(=C\C)CN3CC[C@]1(C6)c1ccccc1N2[C@]4(CO)C(=O)OC`, the IC50 (in experiment [9]; with MDA-MB-231; in the experiment with Huh-7) was 9.8 µM each time.

In the case of `COC(=O)C1=CN2CCc3c([nH]c4ccccc34)[C@@H]2C[C@@H]1C1=CO[C@@H]([C@H]2[C@@H]3CCN4CC[C@@]5(C(=C3C(=O)OC)Nc3ccccc35)[C@@H]24)C[C@@H]1C`, the IC50 in the experiment with A549 [1] turned out to be 0.00309 µM; with HT-29 [10] it was 0.00205 µM.

`COC(=O)c1[nH]cc2c1[C@]1(CNc3ccc(Cl)cc31)c1[nH]c3ccc(Cl)cc3c1-2`: the IC50 in the experiment on NCI-H460 is 15 µg/mL (≈ 35.4 µM); in the experiment on HepG2 [7] it was 6 µg/mL.

For `COC(=O)/C1=C/c2c([nH]c3ccccc23)/C(C(=O)OC)=C\c2c1[nH]c1ccccc21` [CAULERPIN], the IC50 in the experiment on HepG2 [11] was 24.6 µg/mL (≈ 61.7 µM).

Take `O=C1C[C@@H]2c3ccc(O)c(O)c3[C@@]3(Nc4ccccc4C3=O)[C@@]23C(=O)c2ccccc2N13`: the IC50 in the experiment with HCT-116 worked out at 78 µM.

Regarding `C/C=C1/C[N+]2(C)CC[C@@]34C[C@H]5[C@@H]6C[C@H]7c8c(c9ccccc9n8C)C[C@@H]([C@@H]6CO[C@@]5(C)O[C@@]35[C@@H]2C[C@@H]1[C@@H](C(=O)OC)N5c1ccccc14)N7C` (some centres undefined), the EC50 in the experiment with HT-29 [3] (HT-29, time 48 hrs, read-out: ED50 (the source's name)) worked out at 6.5 µM.

For the molecule `C/C=C1/CN2CC[C@@H]3c4ccccc4N4[C@H](C(=O)OC)[C@H]1C[C@H]2[C@]34/C=C/C1=COC[C@@H]2[C@H]1C[C@H]1c3c(c4ccccc4n3C)C[C@@H]2N1C`, the 50% inhibitory concentration (IC50) (with CAKI-2; in the experiment with MCF7 [4]; in the experiment on LS174T; in experiment [5]) was 2 µM in each case.
